Columns and labels:
PDE7B = molecular target: T1, PDE7B (Homo sapiens, UniProt Q9NP56); test: PDE inhibition, recombinant PDE7B (SPA); format: biochemical; details: human isoenzyme
T1 construct: made in house; host or cells: Sf9 (baculovirus, pFASTBAC)
Text: (§1) Recombinant PDE1C (GenBank/EMBL Accession Number: NM_005020, Loughney et al. J. Biol. Chem. 1996 271, 796-806), PDE2A (GenBank/EMBL Accession Number: NM_002599, Rosman et al. Gene 1997 191, 89-95), PDE3B (GenBank/EMBL Accession Number: NM_000922, Miki et al. Genomics 1996, 36, 476-485), PDE4B (GenBank/EMBL Accession Number: NM_002600, Obernolte et al. Gene. 1993, 129, 239-247), PDE5A (GenBank/EMBL Accession Number: NM_001083, Loughney et al. Gene 1998, 216, 139-147), PDE7B (GenBank/EMBL Accession Number: NM_018945, Hetman et al. Proc. Natl. Acad. Sci. U.S.A. 2000, 97, 472-476), PDE8A (GenBank/EMBL Accession Number: AF—056490, Fisher et al. Biochem. Biophys. Res. Commun. 1998, 246, 570-577), PDE9A (Fisher et al., J. Biol. Chem., 1998, 273 (25): 15559-15564), PDE10A (GenBank/EMBL Accession Number: NM_06661, Fujishige et al. J Biol Chem. 1999, 274, 18438-45), PDE11A (GenBank/EMBL Accession Number: NM_016953, Fawcett et al. Proc. Natl. Acad. Sci. 2000, 97, 3702-3707) were expressed in Sf9 cells with the aid of the pFASTBAC baculovirus expression system (GibcoBRL).
(§2) The test substances are dissolved in 100% DMSO and serially diluted to determine their in vitro effect on PDE9A. Typically, serial dilutions from 200 μM to 1.6 μM are prepared (resulting final concentrations in the assay: 4 μM to 0.032 μM). 2 μl portions of the diluted substance solutions are introduced into the wells of microtitre plates (Isoplate; Wallac Inc., Atlanta, Ga.). Then 50 μl of a dilution of the PDE9A preparation described above are added. […] The plates are then measured for 30 s per well in a Microbeta scintillation counter (Wallac Inc., Atlanta, Ga.). IC50 values are determined from the graphical plot of the substance concentration versus the percentage inhibition.
(§3) The in vitro effect of test substances on recombinant PDE3B, PDE4B, PDE7B, PDE8A, PDE10A and PDE11A is determined by the assay protocol described above for PDE9A with the following adaptations: the substrate used is [5′,8-^3H]adenosine 3′,5′-cyclic phosphate (1 μCi/μl; Amersham Pharmacia Biotech., Piscataway, N.J.). […]

PDE11A = molecular target: T2, PDE11A (Homo sapiens, UniProt Q9HCR9); test: PDE inhibition, recombinant PDE11A (SPA); format: biochemical; details: human isoenzyme, read-out: IC50 PDE11
T2 construct: made in house; host or cells: Sf9 (baculovirus, pFASTBAC)
Text: as §1, §2, §3

PDE1C = molecular target: T3, PDE1C (Homo sapiens, UniProt Q14123); test: PDE inhibition, recombinant PDE1C (SPA); format: biochemical; details: human isoenzyme
T3 construct: made in house; host or cells: Sf9 (baculovirus, pFASTBAC)
Text: as §1, §2, §3

PDE4B = PDE4B (Homo sapiens, UniProt Q07343); test: PDE inhibition, recombinant PDE4B (SPA); format: biochemical; details: human isoenzyme
Text: as §1, §2, §3

PDE3B = molecular target: T4, PDE3B (Homo sapiens, UniProt Q13370); test: PDE inhibition, recombinant PDE3B (SPA); format: biochemical; details: human isoenzyme
T4 construct: made in house; host or cells: Sf9 (baculovirus, pFASTBAC)
Text: as §1, §2, §3

PDE2A = molecular target: T5, PDE2A (Homo sapiens, UniProt O00408); test: PDE inhibition, recombinant PDE2A (SPA); format: biochemical; details: human isoenzyme
T5 construct: made in house; host or cells: Sf9 (baculovirus, pFASTBAC)
Text: as §1, §2, §3

PDE10A = molecular target: T6, PDE10A (Homo sapiens, UniProt Q9Y233); test: PDE inhibition, recombinant PDE10A (SPA); format: biochemical; details: human isoenzyme
T6 construct: made in house; host or cells: Sf9 (baculovirus, pFASTBAC)
Text: as §1, §2, §3

PDE9A [1] = molecular target: T7, PDE9A (Homo sapiens, UniProt O76083); details: concentrations of up to 100 μM; cited from earlier work
Murine PDE9A = molecular target: T8, Murine PDE9A (Mus musculus, UniProt O70628); details: concentrations below 200 μM; cited from earlier work
T8 sequence (O70628 1-534): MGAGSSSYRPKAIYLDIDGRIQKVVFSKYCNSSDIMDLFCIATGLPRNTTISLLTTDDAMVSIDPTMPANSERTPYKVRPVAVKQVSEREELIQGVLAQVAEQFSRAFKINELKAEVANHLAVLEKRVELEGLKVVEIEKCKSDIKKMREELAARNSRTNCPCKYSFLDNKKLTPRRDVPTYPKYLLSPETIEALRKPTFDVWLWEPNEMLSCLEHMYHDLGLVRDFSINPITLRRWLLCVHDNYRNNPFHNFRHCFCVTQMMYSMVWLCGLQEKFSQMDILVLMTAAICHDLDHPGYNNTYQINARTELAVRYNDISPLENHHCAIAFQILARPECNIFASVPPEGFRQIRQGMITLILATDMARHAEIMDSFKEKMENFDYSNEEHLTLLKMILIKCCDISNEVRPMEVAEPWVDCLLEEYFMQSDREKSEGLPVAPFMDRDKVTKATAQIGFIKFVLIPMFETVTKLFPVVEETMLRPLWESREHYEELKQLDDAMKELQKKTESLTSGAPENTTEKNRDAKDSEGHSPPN

PDE9A [2] = molecular target: T7, PDE9A; test: PDE inhibition, recombinant PDE9A (SPA); format: biochemical; parameters: made in house; host or cells: Sf9 (baculovirus, pFASTBAC); details: human isoenzyme
Procedure: The dilution of the PDE9A preparation is chosen so that less than 70% of the substrate is converted during the subsequent incubation (typical dilution: 1:10 000; dilution buffer: 50 mM Tris/HCl pH 7.5, 8.3 mM MgCl2, 1.7 mM EDTA, 0.2% BSA). […] The plates are then measured for 30 s per well in a Microbeta scintillation counter (Wallac Inc., Atlanta, Ga.). IC50 values are determined from the graphical plot of the substance concentration versus the percentage inhibition.

PDE8A = molecular target: T9, PDE8A (Homo sapiens, UniProt O60658); test: PDE inhibition, recombinant PDE8A (SPA); format: biochemical; details: human isoenzyme
T9 construct: made in house; host or cells: Sf9 (baculovirus, pFASTBAC)
Text: Recombinant PDE1C (GenBank/EMBL Accession Number: NM_005020, Loughney et al. J. Biol. Chem. 1996 271, 796-806), PDE2A (GenBank/EMBL Accession Number: NM_002599, Rosman et al. Gene 1997 191, 89-95), PDE3B (GenBank/EMBL Accession Number: NM_000922, Miki et al. Genomics 1996, 36, 476-485), PDE4B (GenBank/EMBL Accession Number: NM_002600, Obernolte et al. Gene. 1993, 129, 239-247), PDE5A (GenBank/EMBL Accession Number: NM_001083, Loughney et al. Gene 1998, 216, 139-147), PDE7B (GenBank/EMBL Accession Number: NM_018945, Hetman et al. Proc. Natl. Acad. Sci. U.S.A. 2000, 97, 472-476), PDE8A (GenBank/EMBL Accession Number: AF—056490, Fisher et al. Biochem. Biophys. Res. Commun. […]
The test substances are dissolved in 100% DMSO and serially diluted to determine their in vitro effect on PDE9A. […] The plates are then measured for 30 s per well in a Microbeta scintillation counter (Wallac Inc., Atlanta, Ga.). IC50 values are determined from the graphical plot of the substance concentration versus the percentage inhibition.
as §3

T6 sequence (Q9Y233 1-779 isoform Q9Y233-1): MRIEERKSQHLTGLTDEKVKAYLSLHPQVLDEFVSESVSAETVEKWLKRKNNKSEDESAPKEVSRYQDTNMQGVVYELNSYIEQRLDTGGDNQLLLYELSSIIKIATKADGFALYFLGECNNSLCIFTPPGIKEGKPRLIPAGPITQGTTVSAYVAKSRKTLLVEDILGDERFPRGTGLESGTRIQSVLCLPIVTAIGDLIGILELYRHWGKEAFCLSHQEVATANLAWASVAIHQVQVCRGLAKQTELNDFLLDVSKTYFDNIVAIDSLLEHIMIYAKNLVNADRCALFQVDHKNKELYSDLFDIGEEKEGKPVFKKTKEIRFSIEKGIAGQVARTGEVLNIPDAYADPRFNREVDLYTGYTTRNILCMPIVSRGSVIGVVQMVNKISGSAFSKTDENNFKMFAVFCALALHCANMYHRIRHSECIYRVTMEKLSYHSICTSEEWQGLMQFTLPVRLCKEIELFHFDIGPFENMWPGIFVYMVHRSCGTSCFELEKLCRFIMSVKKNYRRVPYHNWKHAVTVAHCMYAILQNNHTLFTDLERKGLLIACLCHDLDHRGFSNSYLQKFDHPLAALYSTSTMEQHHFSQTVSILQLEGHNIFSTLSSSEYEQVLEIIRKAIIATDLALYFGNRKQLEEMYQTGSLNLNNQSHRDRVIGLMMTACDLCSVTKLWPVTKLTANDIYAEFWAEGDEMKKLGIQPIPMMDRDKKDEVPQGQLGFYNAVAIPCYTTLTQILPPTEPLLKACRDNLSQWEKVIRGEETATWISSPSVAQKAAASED
T5 sequence (O00408 whole entry): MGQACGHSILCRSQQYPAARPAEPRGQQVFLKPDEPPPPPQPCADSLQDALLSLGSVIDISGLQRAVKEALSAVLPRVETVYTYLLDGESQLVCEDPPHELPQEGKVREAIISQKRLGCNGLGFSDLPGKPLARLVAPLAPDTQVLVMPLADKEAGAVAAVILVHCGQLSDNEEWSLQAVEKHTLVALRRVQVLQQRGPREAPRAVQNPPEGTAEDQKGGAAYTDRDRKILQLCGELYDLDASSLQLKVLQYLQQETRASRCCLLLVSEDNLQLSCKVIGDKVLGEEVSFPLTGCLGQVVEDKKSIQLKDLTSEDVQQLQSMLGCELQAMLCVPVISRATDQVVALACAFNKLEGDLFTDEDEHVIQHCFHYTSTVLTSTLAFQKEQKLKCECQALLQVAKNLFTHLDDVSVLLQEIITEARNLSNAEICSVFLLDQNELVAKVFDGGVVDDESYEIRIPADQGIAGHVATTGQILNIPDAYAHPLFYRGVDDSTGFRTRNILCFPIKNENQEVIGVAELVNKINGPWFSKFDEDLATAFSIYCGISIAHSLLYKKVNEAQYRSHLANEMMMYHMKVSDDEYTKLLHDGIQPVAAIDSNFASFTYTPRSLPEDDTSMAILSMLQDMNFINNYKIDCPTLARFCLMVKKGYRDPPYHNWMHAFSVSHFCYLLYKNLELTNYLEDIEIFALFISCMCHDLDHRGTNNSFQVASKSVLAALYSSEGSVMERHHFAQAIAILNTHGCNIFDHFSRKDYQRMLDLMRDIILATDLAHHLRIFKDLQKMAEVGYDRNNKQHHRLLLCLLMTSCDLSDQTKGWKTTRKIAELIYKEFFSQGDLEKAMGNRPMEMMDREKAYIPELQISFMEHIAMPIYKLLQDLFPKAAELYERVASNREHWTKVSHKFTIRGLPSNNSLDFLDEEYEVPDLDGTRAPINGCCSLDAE
Chain of PDE4B (Q07343 212-736 limits assumed): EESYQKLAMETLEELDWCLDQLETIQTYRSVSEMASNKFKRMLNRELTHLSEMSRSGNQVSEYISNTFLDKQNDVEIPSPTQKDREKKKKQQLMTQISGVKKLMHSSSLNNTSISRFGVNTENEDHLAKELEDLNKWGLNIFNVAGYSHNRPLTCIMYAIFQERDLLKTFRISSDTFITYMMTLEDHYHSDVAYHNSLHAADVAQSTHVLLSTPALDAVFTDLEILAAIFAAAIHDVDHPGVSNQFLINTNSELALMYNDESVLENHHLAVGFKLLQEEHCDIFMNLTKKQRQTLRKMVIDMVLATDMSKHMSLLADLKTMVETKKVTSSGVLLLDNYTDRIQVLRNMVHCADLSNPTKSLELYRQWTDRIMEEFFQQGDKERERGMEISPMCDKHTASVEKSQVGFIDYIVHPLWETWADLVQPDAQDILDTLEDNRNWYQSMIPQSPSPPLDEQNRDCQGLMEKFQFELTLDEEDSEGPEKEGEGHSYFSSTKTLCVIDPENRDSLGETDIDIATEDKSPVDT
T2 sequence (Q9HCR9 445-933 limits assumed): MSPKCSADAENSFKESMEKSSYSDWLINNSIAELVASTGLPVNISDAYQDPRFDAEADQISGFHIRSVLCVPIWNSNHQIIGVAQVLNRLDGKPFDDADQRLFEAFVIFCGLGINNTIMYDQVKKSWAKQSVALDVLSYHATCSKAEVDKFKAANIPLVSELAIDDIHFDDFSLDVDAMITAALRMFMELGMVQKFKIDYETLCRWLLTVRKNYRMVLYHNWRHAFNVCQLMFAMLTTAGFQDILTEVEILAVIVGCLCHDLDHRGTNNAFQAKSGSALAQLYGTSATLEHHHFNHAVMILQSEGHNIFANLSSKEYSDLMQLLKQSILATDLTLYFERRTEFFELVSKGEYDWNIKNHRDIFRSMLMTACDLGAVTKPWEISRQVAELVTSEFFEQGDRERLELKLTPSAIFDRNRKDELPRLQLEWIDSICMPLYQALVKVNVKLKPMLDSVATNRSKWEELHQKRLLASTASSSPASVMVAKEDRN
T7 sequence (O76083 whole entry): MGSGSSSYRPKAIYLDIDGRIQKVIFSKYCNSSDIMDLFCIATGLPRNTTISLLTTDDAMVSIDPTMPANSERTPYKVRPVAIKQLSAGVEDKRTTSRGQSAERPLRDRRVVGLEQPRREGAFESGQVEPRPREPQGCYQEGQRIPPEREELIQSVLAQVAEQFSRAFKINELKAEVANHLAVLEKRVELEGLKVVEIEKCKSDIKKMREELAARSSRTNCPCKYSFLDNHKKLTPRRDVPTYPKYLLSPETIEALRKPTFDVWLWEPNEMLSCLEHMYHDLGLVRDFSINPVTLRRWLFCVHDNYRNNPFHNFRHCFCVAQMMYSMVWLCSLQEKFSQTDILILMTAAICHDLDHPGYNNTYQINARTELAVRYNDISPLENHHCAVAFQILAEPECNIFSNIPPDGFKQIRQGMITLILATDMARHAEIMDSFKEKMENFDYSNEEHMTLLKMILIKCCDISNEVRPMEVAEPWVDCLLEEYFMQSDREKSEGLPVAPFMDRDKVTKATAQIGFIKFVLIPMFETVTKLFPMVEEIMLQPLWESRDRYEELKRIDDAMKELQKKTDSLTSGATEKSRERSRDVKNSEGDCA
T1 sequence (Q9NP56 whole entry): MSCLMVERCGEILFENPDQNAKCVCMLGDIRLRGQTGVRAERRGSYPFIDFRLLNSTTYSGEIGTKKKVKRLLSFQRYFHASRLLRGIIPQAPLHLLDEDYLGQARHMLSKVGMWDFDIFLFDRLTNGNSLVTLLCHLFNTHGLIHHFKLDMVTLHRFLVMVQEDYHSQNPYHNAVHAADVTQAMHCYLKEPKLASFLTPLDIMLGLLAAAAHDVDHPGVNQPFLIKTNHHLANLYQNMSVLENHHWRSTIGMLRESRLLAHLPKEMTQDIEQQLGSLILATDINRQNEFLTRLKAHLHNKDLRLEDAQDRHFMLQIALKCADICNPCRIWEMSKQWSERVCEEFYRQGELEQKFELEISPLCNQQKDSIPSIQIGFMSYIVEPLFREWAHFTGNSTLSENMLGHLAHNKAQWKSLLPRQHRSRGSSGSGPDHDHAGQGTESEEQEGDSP
T4 sequence (Q13370 whole entry): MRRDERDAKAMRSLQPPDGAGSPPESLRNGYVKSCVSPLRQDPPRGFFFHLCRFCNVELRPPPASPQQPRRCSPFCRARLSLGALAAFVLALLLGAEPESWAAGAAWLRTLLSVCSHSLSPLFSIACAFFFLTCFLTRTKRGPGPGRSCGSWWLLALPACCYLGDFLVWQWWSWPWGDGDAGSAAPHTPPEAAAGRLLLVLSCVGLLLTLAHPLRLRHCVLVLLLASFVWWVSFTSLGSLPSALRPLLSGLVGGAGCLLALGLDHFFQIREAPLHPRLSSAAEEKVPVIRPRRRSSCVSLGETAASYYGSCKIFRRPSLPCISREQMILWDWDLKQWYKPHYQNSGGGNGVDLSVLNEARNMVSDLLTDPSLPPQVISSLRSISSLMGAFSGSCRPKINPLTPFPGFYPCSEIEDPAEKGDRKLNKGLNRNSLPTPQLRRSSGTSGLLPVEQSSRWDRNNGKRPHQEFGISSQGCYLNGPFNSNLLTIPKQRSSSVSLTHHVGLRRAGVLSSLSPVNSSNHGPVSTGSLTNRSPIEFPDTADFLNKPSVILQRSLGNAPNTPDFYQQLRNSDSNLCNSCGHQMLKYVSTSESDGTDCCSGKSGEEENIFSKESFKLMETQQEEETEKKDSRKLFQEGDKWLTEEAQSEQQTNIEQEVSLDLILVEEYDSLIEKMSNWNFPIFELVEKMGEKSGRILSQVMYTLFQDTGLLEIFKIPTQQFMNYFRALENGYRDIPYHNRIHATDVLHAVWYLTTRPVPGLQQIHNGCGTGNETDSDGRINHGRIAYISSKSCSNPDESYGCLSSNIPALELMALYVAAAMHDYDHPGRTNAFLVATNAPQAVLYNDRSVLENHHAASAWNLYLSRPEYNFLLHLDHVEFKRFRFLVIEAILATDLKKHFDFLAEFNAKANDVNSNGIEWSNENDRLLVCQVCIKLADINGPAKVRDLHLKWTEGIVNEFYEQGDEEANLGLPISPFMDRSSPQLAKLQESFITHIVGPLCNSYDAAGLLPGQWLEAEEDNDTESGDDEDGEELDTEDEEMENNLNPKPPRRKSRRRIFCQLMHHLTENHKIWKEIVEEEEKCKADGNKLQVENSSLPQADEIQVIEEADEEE

IC50 (PDE7B) [µM] | IC50 (PDE11A) [µM] | IC50 (PDE1C) [µM] | IC50 (PDE4B) [µM] | IC50 (PDE3B) [µM] | IC50 (PDE2A) [µM] | IC50 (PDE10A) [µM] | IC50 (PDE9A [2]) [µM] | IC50 (PDE8A) [µM] | Compound | inhibition on the isolated enzyme (human PDE9A) (PDE9A [1]) | inhibition of murine PDE9A (Murine PDE9A)
2.2 | > 4 | > 4 | > 4 | > 4 | > 4 | > 4 |  |  | COc1ccc(-c2ccccc2Cc2nc(N3CCC(CCO)CC3)c(C#N)c(=O)[nH]2)cn1 [Example 38, 4-[4-(2-Hydroxyethyl)piperidin-1-yl]-2-[2-(6-methoxypyridin-3-yl)benzyl]-6-oxo-1,6-dihydropyrimidine-5-carbonitrile] |  | 
 |  |  |  |  |  |  |  |  | CC(C)Cn1c(=O)n(C)c(=O)c2[nH]cnc21 [IBMX] | no inhibition | not inhibited
 |  |  |  |  |  |  |  |  | COc1ccc(C2CNC(=O)C2)cc1OC1CCCC1 (stereo not shown) [rolipram] | no inhibition | 
> 4 | 1.5 | > 4 | > 4 | > 4 | > 4 | > 4 | 0.015 | > 4 | COc1ccc(-c2ccccc2Cc2nc(N3CCCC3)c(C#N)c(=O)[nH]2)cn1 [Example 113] |  | 
 |  |  |  |  |  |  |  |  | CC(=O)Nc1ccc(-c2c[nH]c(=O)cn2)cc1 [SKF94120] | no inhibition | 
> 4 | > 4 | > 4 | > 4 | > 4 | > 4 | > 4 | 0.005 | > 4 | COc1ccc(-c2ccccc2Cc2nc(N3CCC[C@H]3CO)c(C#N)c(=O)[nH]2)cn1 [Example 112] |  | 
 |  |  |  |  |  |  |  |  | OCCN(CCO)c1nc(N2CCCCC2)c2nc(N(CCO)CCO)nc(N3CCCCC3)c2n1 [dipyridamole] | no inhibition | 
 |  |  |  |  |  |  |  |  | CCOC(=O)C1=C[C@]2(CC)CCCN3CCc4c(n1c1ccccc41)[C@@H]32 [vinpocetine] | no inhibition | 
